Measurements reported in patent publication US7132286B2, “Method for neural stem cell differentiation using valproate” (Psychiatric Genomics, Inc., priority 2001, dated 2006).

Columns and labels:
rat cortical stem cells [1] = assay: Astrocyte differentiation of rat cortical stem cells (GFAP immunofluorescence); format: cell-based; conditions: 6 days valproate vs control
Protocol: Drug treatment. For immunofluorescence and Western analysis, cells were treated daily with either 0.5 mM of valproate (Sigma), 10 ng/ml of BDNF (R & D Systems), 20 ng/ml of NT-3 (R & D Systems), 1 nM 9cis retinoic acid (Sigma) or a dilution of NCM for 6 or 7 days. In some experiments valproate was also added with NCM and/or 9cis RA for 7 days. For human stem cell experiments, valproate (0.5 mM) or BDNF (25 ng/ml) was added for 9 days. For neurite outgrowth experiments, cells were treated for 1 day with 0.5 mM valproate or 50 ng/ml of BDNF. Where applicable, medium was changed every 2 days. After about 5–10 days, preferably on day 6 (i.e., after 6 days of drug exposure) the cells were fixed with a 4% solution of para-formaldehyde (PFA) in PBS, prepared as follows: Immunofluorescent staining and visualization. Cells were plated at 20,000 cells/well in poly-L-ornithine/fibronectin (1 mg/ml) coated 24-well plates. […] For immunofluorescence, 3 different black and white pictures were taken by field of interest with a digital camera CoolSnap Fx (Princeton) corresponding to the exposure of Cy2, Cy3 and Hoechst fluorescence. […] The percentage of neurons, astrocytes and GABAergic cells was determined by comparing the number of cells immunopositive for β-tubulin III, GFAP and GABA to the number of bis-benzamide stained nuclei (i.e., total cell number). […]

rat cortical stem cells [2] = assay: Neurite outgrowth of neurons derived from rat cortical stem cells (ArrayScan neurite outgrowth index); format: cell-based; conditions: 1 day; 0.5 mM valproate, 50 ng/ml BDNF; control 35.1+0.3
Protocol: Following plating cells were expanded for about 3–4 days (Passage 1, P1). Cells were treated daily with 10 ng/ml bFGF. The cultures were never permitted to reach more than 70% confluency. Cultures were then passaged as follows: 10 ml of HBSS without Ca^2+ and Mg^2+ was added to each 100 mm dish and the cells incubated at 37° C. for 5–15 minutes, or until sufficient numbers of the stem cells were rounded up. It is not expected that all cells in the culture will round up as there are several cell types in the culture at P0. The pH of the HBSS should be neutral at all times during this incubation. Cells were then removed from the dish by pipetting with a 5 ml pipette, and collected in a 15 or 50 ml conical tube, and centrifuged at 1000 g for 5 minutes. Cells were gently re-suspended in medium, counted, and plated at a density of 1×10^6 cells in 10 cm dishes and expanded for about 2 days in bFGF (Passage 1, P1). […]
For analysis of neurite outgrowth, digital images were taken with an ArrayScan HCS System (Cellomics, Pa.) of 100 cells/well treated with valproate (0.5 mM) and BDNF (50 ng/ml) for 1 day. […] Neurite outgrowth index is defined as the percentage of cells whose neurites total more than 20 μm in length, and is calculated using Cellomics' Neurite Outgrowth application.

[3] = literature; cited from earlier work

For `CCCC(CCC)C(=O)O` [valproate, 2-Propylpentanoic acid], the “expression of GFAP (astrocyte marker)” value (rat cortical stem cells [1]) is listed as “dramatically inhibited”, the “neurite index (percentage of cells whose neurites total more than 20 μm in length)” value (rat cortical stem cells [2]) is listed as 49+1.9 and the teratogenic activity [3] is listed as “established human teratogen”.
